Assay results taken from patent US20110144064A1, “Inhibitors of Kynurenine Aminotransferase and Uses Therefor” (priority 2005, published 2011).
Several values for one entry are separate records, joined by “and”; a condition that tells them apart may be missing. Identical values can stand only once.

Molecular target: T1, rat liver partially purified KAT II (Rattus norvegicus, UniProt Q64602)
T1 construct: rat liver partially purified KAT II; from tissue; host or cells: rat liver
Experiment: Inhibition of kynurenine aminotransferase II activity ([3H]-kynurenine to [3H]-kynurenic acid)
Format: biochemical
Settings: IC50 kynurenine aminotransferase II
Method: Compounds were tested as inhibitors of kynurenine aminotransferase II and the IC50 values determined. For the determination of the KAT II activity, 80 μl of rat liver partially purified KAT II was incubated (2 hrs at 37° C. with 100 μl of 150 mM Tris-acetate (pH 7.4), 2 μM kynurenine, (2.5 nCi) [^3H]-kynurenine 1 mM pyruvate and 70 μM pyridoxal-5′-phosphate. Add 20 μl of the inhibitor solution (10×). The reaction was terminated by the addition of 14 μl of 50% trichloroacetic acid and 1 ml of 0.1 N hydrochloric acid. The denaturated protein was removed by centrifugation and 1 ml of the supernatant was applied to a Dowex 50 W H^+ cation exchange column which was then washed with 1 ml of 0.1 N hydrochloric acid followed by 1 ml of ultrapure water. [^3H]-Kynurenic acid formed was subsequently eluted with 2×1 ml of ultrapure water and radioactivity was quantified by liquid scintillation spectrometry.
All compounds are in the racemic form, when applicable, unless indicated otherwise. Other untested compounds are commercially available or easily synthesized using standard synthetic methods. Data are presented as IC50 values in μM for all tested compounds. Blanks are untested compounds.

T1 sequence (Q64602 30-425): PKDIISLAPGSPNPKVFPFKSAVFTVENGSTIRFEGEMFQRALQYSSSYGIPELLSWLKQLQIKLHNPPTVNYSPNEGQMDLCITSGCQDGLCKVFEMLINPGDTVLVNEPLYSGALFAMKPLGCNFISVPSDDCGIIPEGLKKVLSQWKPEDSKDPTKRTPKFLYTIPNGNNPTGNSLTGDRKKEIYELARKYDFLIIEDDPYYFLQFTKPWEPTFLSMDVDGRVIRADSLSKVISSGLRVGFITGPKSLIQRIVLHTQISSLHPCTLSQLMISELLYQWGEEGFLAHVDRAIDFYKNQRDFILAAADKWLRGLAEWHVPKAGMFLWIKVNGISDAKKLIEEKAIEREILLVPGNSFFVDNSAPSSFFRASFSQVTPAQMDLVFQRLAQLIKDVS

| Structure (SMILES) | IC50 [µM] |
| --- | --- |
| NC(CCCCCC(=O)O)C(=O)O (racemic) [n=5, R^1 = NH^2, DL-2-amino-1,8-octanedioic acid] | 272 |

Same assay, conditions: IC50 kynurenine aminotransferase II, rat liver partially purified KAT II, 2 hrs at 37° C., pH 7.4, 2 μM kynurenine, 1 mM pyruvate

| Structure (SMILES) | IC50 [µM] |
| --- | --- |
| NC(CCC(=O)O)C(=O)O (racemic) [n=2, R^1 = NH^2, DL-2-amino-1,5-pentanedioic acid] | 2250 |
| NC(CCP(=O)(O)O)C(=O)O (racemic) [n=2, X = PO3H2 (DL), DL-2-amino-4-phosphonobutyric acid] | 505 |
| NC(CCCCCP(=O)(O)O)C(=O)O (stereo not drawn) [n=5, X = PO3H2 (DL), 2-amino-7-phosphonoheptanoic acid] | 1460 |

Same assay, conditions: rat liver partially purified KAT II, 2 hrs at 37° C., pH 7.4, 2 μM kynurenine, 1 mM pyruvate

| IC50 kynurenine aminotransferase II | Structure (SMILES) |
| --- | --- |
| inactive | O=C(O)CC(=O)O [n=0, R^1 = H] |
| inactive | O=C(O)CCC(=O)O [n=1, R^1 = H] |
| inactive | O=C(O)CCCCCCC(=O)O [n=5, R^1 = H] |

| Structure (SMILES) | IC50 kynurenine aminotransferase II |
| --- | --- |
| O=C(O)CCCC(=O)O [n=2, R^1 = H] | inactive |

Same assay, conditions: rat liver partially purified KAT II, 2 hrs at 37° C., pH 7.4, 2 μM kynurenine, 1 mM pyruvate; read-out: IC50 kynurenine aminotransferase II

| Structure (SMILES) | IC50 |
| --- | --- |
| NC(CC(=O)O)C(=O)O (racemic) [n=1, R^1 = NH^2, DL-2-amino-1,4-butanedioic acid] | 2460 µM |
| NC(CCCP(=O)(O)O)C(=O)O (racemic) [n=3, X = PO3H2 (DL), DL-2-amino-5-phosphonopentanoic acid] | 1000 µM |
| NC(CCCCCCC(=O)O)C(=O)O (racemic) [n=6, R^1 = NH^2, DL-2-amino-1,9-nonanedioic acid] | 355 µM |
| NC(CCCCCCCCCCCCCC(=O)O)C(=O)O (racemic) [n=13, R^1 = NH^2, DL-2-amino-1,16-hexadecanedioic acid] | 6 µM and 6.4 µM |
| O=C(O)CCCCCCCCCCCCCCCO [n = 13, R1, R2 = H, X = CH2OH, 16-hydroxyhexadecanoic acid] | 149 µM |
| N[C@@H](CS(=O)O)C(=O)O [n=1, X = S02H (L), cysteinesulfinic acid] | 1150 µM |
| NC(CS(=O)(=O)O)C(=O)O (centres unmarked) [n=1, X = SO3H (L), 2-amino-3-sulfopropionic acid] | 739 µM |
| N[C@@H](CCS(=O)O)C(=O)O [n=2, X = S02H (L), homocysteinesulfinic acid] | 224 µM |
| O=C(O)CCCCC(=O)O [n=3, R^1 = H, 1,6-hexanedioic acid] | 1290 µM |
| O=C(O)CCCCCC(=O)O [n=4, R^1 = H, 1,7-heptanedioic acid] | 6370 µM |
| O=C(O)CCCCCCCC(=O)O [n=6, R^1 = H, 1,9-nonanedioic acid] | 4580 µM |
| O=C(O)CCCCCCCCC(=O)O [n=7, R^1 = H, 1,10-decanedioic acid] | 720 µM |
| O=C(O)CCCCCCCCCC(=O)O [n=8, R^1 = H, 1,11-undecanedioic acid] | 234 µM |
| O=C(O)CCCCCCCCCCC(=O)O [n=9, R^1 = H, 1,12-dodecanedioic acid] | 256 µM |
| O=C(O)CCCCCCCCCCCC(=O)O [n=10, R^1 = H, 1,13-tridecanedioic acid] | 170 µM |

Now from value to molecule:

| IC50 | Structure (SMILES) |
| --- | --- |
| 53.7 µM | CC(N)(CCCCCCCCCCCCCC(=O)O)C(=O)O (racemic) [DL-2-amino-2-methyl-1,16-hexadecanedioic acid] |
| 29.3 µM | CNC(CCCCCCCCCCCCCC(=O)O)C(=O)O (racemic) [DL-2-methylamino-1,16-hexadecanedioic acid] |
| 18 µM | NC(CCCC(=O)O)C(=O)O (racemic) [n=3, R^1 = NH^2, DL-2-amino-1,6-hexanedioic acid] |
| 14 µM | NC(CCCCC(=O)O)C(=O)O (racemic) [n=4, R^1 = NH^2, DL-2-amino-1,7-heptanedioic acid] |
| 7 µM | NC(CCCCCCCCC(=O)O)C(=O)O (racemic) [n=8, R^1 = NH^2, DL-2-amino-1,11-undecanedioic acid] |
| 8 µM | NC(CCCCCCCCCC(=O)O)C(=O)O (racemic) [n=9, R^1 = NH^2, DL-2-amino-1,12-dodecandioic acid] |
| 7 µM | NC(CCCCCCCCCCC(=O)O)C(=O)O (racemic) [n=10, R^1 = NH^2, DL-2-amino-1,13-tridecanedioic acid] |
| 85 µM | NC(CCCCCCCCCCCCCCC(=O)O)C(=O)O (racemic) [n=14, R^1 = NH^2, DL-2-amino-1,17-heptadecanedioic acid] |
| 63 µM | NC(CCS(=O)(=O)O)C(=O)O (centres unmarked) [n=2, X = SO3H (L), 2-amino-4-sulfobutyric acid] |
| 102 µM | O=C(O)CCCCCCCCCCCCC(=O)O [n=11, R^1 = H, 1,14-tetradecanedioic acid] |
| 71 µM | O=C(O)CCCCCCCCCCCCCC(=O)O [n=12, R^1 = H, 1,15-pentadecanedioic acid] |
| 60 µM | O=C(O)CCCCCCCCCCCCCCC(=O)O [n=13, R^1 = H, 1,16-hexadecanedioic acid] |
